In patent publication US20040057961A1, “Human t cell response to mhc-binding motif clusters” (priority 2000, published 2004):

Assays:
[1] = system: peripheral blood mononuclear cells from Mtb-immune (PPD skin-test positive) subjects; experiment: Lymphoproliferation assay ([3H]thymidine, stimulation index) with PBMC of Mtb-immune subjects; format: cell-based, human; settings: for Phil % responders (n = 38) / Phil # responders (n = 38): Philippines cohort; for Phil % responders (n = 38) / Phil # responders (n = 38) / Prov % responders (n = 22) / Prov # responders (n = 22): response positive if SI≧2.0; for Phil # responders (n = 38) / Prov # responders (n = 22): peptide 1 and 10 μg/ml; for Prov % responders (n = 22) / Prov # responders (n = 22): Providence cohort; for number of Mtb-immune responders (proliferative response SI≧2.0): all Mtb-immune subjects
[2] = system: peripheral blood mononuclear cells from Mtb-naive (PPD skin-test negative) subjects; experiment: Lymphoproliferation assay ([3H]thymidine, stimulation index) with PBMC of Mtb-naive subjects; format: cell-based, human; settings: n=19

| Substance | Phil % responders (n = 38) [1] | Phil # responders (n = 38) [1] | Prov % responders (n = 22) [1] | Prov # responders (n = 22) [1] | number of Mtb-immune responders (proliferative response SI≧2.0) ([1]; n=40) | further results |
| --- | --- | --- | --- | --- | --- | --- |
| CEVWSNVSETISGPRLYGEM (listed as Mycobacterium tuberculosis) [14-5, 14 kDa Mtb protein, amino acids 74-93] | 5% | 2 | 5% | 2 | – | – |
| KFLEGFVRTSNIKFQD (listed as Mycobacterium tuberculosis) [32-9, 32 kDa Mtb protein, amino acids 227-242] | – | – | – | – | six | – |
| FAYGSFVRTVSLPVGA (listed as Mycobacterium tuberculosis) [16-5, 16 kDa Mtb protein, amino acids 92-107] | – | – | – | – | six | Mtb-naive controls that responded [2]: none; % responders among Mtb-immune subjects ([1]; n=40): 28% |
| phytohemagglutinin [reference compound] | – | – | – | – | – | response to mitogen in words ([1]; 1 μg/ml, the 41 subjects who were tested (both groups)): robust response |
| RHVKPTGSAVVGLSMAASSA [32-5, 32 kDa Mtb protein, amino acids 113-132] | – | – | – | – | six | – |
| GSFGSAPSNGWLKLGLVEFG (listed as Mycobacterium tuberculosis) [14-2, 14 kDa Mtb protein, amino acids 19-38] | 15% | 6 | 8% | 3 | six | – |
| LAIYHPQQFVYAGAMSGLLD (listed as Mycobacterium tuberculosis) [32-7, 32 kDa Mtb protein, amino acids 135-154] | – | – | – | – | six | – |
| SVVMPVGGQSSFYSDW (listed as Mycobacterium tuberculosis) [32-3, 32 kDa Mtb protein, amino acids 67-82] | – | – | – | – | only a few | – |
| PLLNVGKLIANNTRVWVY (listed as Mycobacterium tuberculosis) [32-8, 32 kDa Mtb protein, amino acids 193-210] | – | – | – | – | – | Mtb-naive controls that responded [2]: none; % responders among Mtb-immune subjects ([1]; n=40): 25% |
| VGLSMAASSALTLAIYHPQQ (listed as Mycobacterium tuberculosis) [32-6, 32 kDa Mtb protein, stop at amino acid 142] | – | – | – | – | six | – |
| TT: tetanus toxoid, control antigen (Connaught) [reference compound] | – | – | – | – | – | Mtb-naive controls not showing a proliferative response ([2]; control antigen 5 μg/ml): one; Mtb-immune subjects showing a proliferative response in vitro ([1]; control antigen 5 μg/ml, n=40): All but six; stimulation index (SI) range ([1]; control antigen 5 μg/ml, range over responding subjects): 2-182 |
| VSETISGPRLYGEMTMQGTR (listed as Mycobacterium tuberculosis) [14-6, 14 kDa Mtb protein, amino acids 80-99] | 3% | 1 | 3% | 1 | – | – |
| MLGNAPSVVPNTTLGMHC (listed as Mycobacterium tuberculosis) [14-1, 14 kDa Mtb protein, amino acids 1-18] | 5% | 2 | 5% | 2 | – | – |
| RSLFPEFSELFAAFPSFAGL (listed as Mycobacterium tuberculosis) [16-1, 16 kDa Mtb protein, amino acids 11-30] | 10% | 4 | 5% | 2 | six | – |
| QNVTGSVVCTTAAGNVN [19-2] | – | – | – | – | six | – |
| LKLGLVEFGGVAKLNAEVMS (listed as Mycobacterium tuberculosis) [14-3, 14 kDa Mtb protein, amino acids 30-49] | 8% | 3 | 10% | 4 | six | – |
| LAIGGAATGIAAVLTDGNPP [19-3] | – | – | – | – | six | – |
| QAVMLGTGTPNRA (listed as Mycobacterium tuberculosis) [14-4, 14 kDa Mtb protein, amino acids 56-68] | 8% | 3 | 3% | 1 | – | – |
| AELPGVDPDKDVD (listed as Mycobacterium tuberculosis) [16-3, 16 kDa Mtb protein, amino acids 54-66] | – | – | – | – | one | – |
| FSELFAAFPSFAGLRPTFDT [16-2, 16 kDa Mtb protein, amino acids 17-36] | 10% | 4 | 3% | 1 | – | – |
